The text below walks through data of patent US7638540B2, “Benzofuran compound and medicinal composition containing the same” (The New Industry Research Organization, priority 2003, dated 2009).

For orientation: melting point means the temperature of the solid-liquid transition. The compound `N#Cc1oc2ccc(Br)cc2c1NC(=O)/C=C/c1ccccc1` [Example 122, (E)-N-(5-bromo-2-cyanobenzofuran-3-yl)-3-phenylacrylamide] gave a melting point of 240.2 to 242 °C. With `C/C=C/C(=O)Nc1c(C(C)=O)oc2ccc(Br)cc12` [Example 123, (E)-N-(2-acetyl-5-bromobenzofuran-3-yl)-2-butenamide] the figure was 127.8 to 130 °C; with `COC(=O)COc1cccc2cc(C(C)NC(=O)c3cnoc3C)oc12` (stereo not drawn) [Example 124, Methyl (2-{1-[(5-methylisoxazole-4-carbonyl)amino]ethyl}benzofuran-7-yloxy)acetate], 111.8 to 114.6 °C; with `CCNS(=O)(=O)c1ccc(OCCCC(=O)OCC)c2oc(C(C)NC(=O)c3cnoc3C)cc12` (stereo not drawn) [Example 125, Ethyl 4-(4-ethylsulfamoyl-2-{1-[(5-methylisoxazole-4-carbonyl)amino]ethyl}benzofuran-7-yloxy)butyrate], 88.1 to 90 °C. With `C/C(O)=C(\C#N)C(=O)NC(C)c1cc2cccc(OCCCC(=O)O)c2o1` (stereo not drawn) [Example 126, (Z)-4-{2-[1-(2-cyano-3-hydroxy-2-butenoylamino)ethyl]benzofuran-7-yloxy}butyric acid] the figure was 147.9 to 148.6 °C; with `C/C(O)=C(/C#N)C(=O)NC(C)c1cc2cccc(OCC(=O)O)c2o1` (stereo not drawn) [Example 127, (E)-{2-[1-(2-cyano-3-hydroxy-2-butenoylamino)ethyl]benzofuran-7-yloxy}acetic acid], 169.9 to 173.2 °C; with `CCNS(=O)(=O)c1ccc(OCCCC(=O)OCC)c2oc(C(C)NC(=O)/C(C#N)=C(\C)O)cc12` (stereo not drawn) [Example 128, Ethyl (E)-4-{2-[1-(2-cyano-3-hydroxy-2-butenoylamino)ethyl]-4-ethylsulfamoylbenzofuran-7-yloxy}butyrate], 121 to 122.1 °C. With `CCNS(=O)(=O)c1ccc(OCCCC(=O)O)c2oc(C(C)NC(=O)/C(C#N)=C(\C)O)cc12` (stereo not drawn) [Example 129, (E)-4-{2-[1-(2-cyano-3-hydroxy-2-butenoylamino)ethyl]-4-ethylsulfamoylbenzofuran-7-yloxy}butyric acid] the figure was 169.3 to 170.2 °C. `C/C=C/C(=O)NC(C)c1cc2cccc(OCCCCl)c2o1` (stereo not drawn) [Example 133, (E)-N-{1-[7-(3-chloropropoxy)benzofuran-2-yl]ethyl}-2-butenamide] yielded a melting point of 104.7 to 107.7 °C. With `CC(=O)c1cc2cc(/C(C)=C/C(=O)O)ccc2o1` [Example 134, (E)-3-(2-acetylbenzofuran-5-yl)-2-butenoic acid] the figure was 220.4 to 223.5 °C. The compound `CCCCc1oc2ccccc2c1/C(Cl)=C/C=C/C(=O)Nc1ccc(OC)cc1` [Example 135, (2E,4Z)-5-(2-butylbenzofuran-3-yl)-5-chloropenta-2,4-dienoic acid (4-methoxyphenyl)amide] showed a melting point of 91.3 to 93.2 °C.

In turn, `C/C(=C\C(=O)N1CCOCC1)c1ccc2oc(/C(C)=C/C(=O)O)cc2c1` [Example 136, (E,E)-3-[5-(1-methyl-3-morpholin-4-yl-3-oxopropenyl)benzofuran-2-yl]-2-butenoic acid] gave a melting point of 202.6 to 204.4 °C. `CCN(CC)C(=O)/C=C(\C)c1ccc(OCCCCl)c2oc(C(C)=O)cc12` [Example 137, (E)-3-[2-acetyl-7-(3-chloropropoxy)benzofuran-4-yl]-2-butenoic acid diethylamide] displayed a melting point of 80.6 to 82.1 °C. Regarding `COc1cccc2cc(/C(Cl)=C/C=C/C(=O)N3CCOCC3)oc12` [Example 138, (2E,4Z)-5-chloro-5-(7-methoxybenzofuran-2-yl)-1-morpholin-4-ylpenta-2,4-dien-1-one], the melting point fell in the range of 185.4 to 186.6 °C.

In the case of `CCN(CC)C(=O)/C=C(\C)c1ccc(OCCCSc2ccc(Cl)cc2)c2oc(C(C)=O)cc12` [Example 139, (E)-3-{2-acetyl-7-(3-(4-chlorophenylsulfanyl)propoxy)benzofuran-4-yl}-2-butenoic acid diethylamide], the melting point lay in the range of 110.5 to 113.5 °C. With `CCOC(=O)CCCOc1cccc2cc(/C(Cl)=C/C=O)oc12` [Example 140, Ethyl 4-[2-(1-chloro-3-oxopropenyl)benzofuran-7-yloxy]-butyrate] the figure was 67 to 69.5 °C. For the compound `COc1ccc(NC(=O)/C=C(\C)c2oc3c(Cl)cccc3c2-c2ccc(Cl)cc2)cc1` [Example 143, (E)-3-[7-chloro-3-(4-chlorophenyl)benzofuran-2-yl]-2-butenoic acid (4-methoxyphenyl)-amide], the melting point lay within 168.9 to 170 °C.

For `CCOC(=O)/C=C(\C)c1ccc2oc(/C(Cl)=C/C=O)cc2c1` [Example 146, Ethyl 3-[2-(1-chloro-3-oxo-(Z)-propenyl)benzofuran-5-yl]-(E)-2-butenoate], the melting point was in the range of 99.5 to 101 °C.

In turn, `CCOC(=O)/C=C(\C)c1ccc2oc(/C(Cl)=C/C=C/C(=O)N3CCOCC3)cc2c1` [Example 148, Ethyl 3-[2-(1-chloro-5-morpholin-4-yl-5-oxo-penta-(1Z,3E)-1,3-dienyl)benzofuran-5-yl]-(E)-2-butenoate] registered a melting point of 194.6 to 196.5 °C. Regarding `Cc1oc2ccc(Br)cc2c1/C(Cl)=C/C=O` [Example 151, (Z)-3-(5-bromo-2-methylbenzofuran-3-yl)-3-chloropropenal], the melting point was 99.8 to 104 °C.

`CCN(CC)C(=O)/C=C(/C)c1oc2ccc(Br)cc2c1C` [Example 153, (Z)-3-(5-bromo-3-methylbenzofuran-2-yl)-2-butenoic acid diethylamide]: the melting point lay in the range of 60.1 to 62 °C. With `N#C/C=C/C=C(\Cl)c1cc2cc(Br)ccc2o1` [Example 154, (2E,4Z)-5-(5-bromobenzofuran-2-yl)-5-chloropenta-2,4-dienenitrile] the figure was 179 to 185 °C; with `CCCCc1oc2ccccc2c1/C(C)=C/C(=O)NCCc1ccc(OC)c(OC)c1` [Example 157, (E)-3-(2-butylbenzofuran-3-yl)-2-butenoic acid [2-(3,4-dimethoxyphenyl)ethyl]amide], 95 to 99 °C; with `CCN(CC)C(=O)/C=C(\C)c1ccc2oc(C(=O)Nc3cccc(OC)c3)c(N)c2c1` [Example 158, (E)-3-amino-5-(2-diethylcarbamoyl-1-methylvinyl)benzofurane-2-carboxylic acid (3-methoxyphenyl)amide], 155 to 157 °C.

As to `CCOC(=O)/C=C/C=C(\Cl)c1cc2cc(Br)ccc2o1` [Example 159, Ethyl (2E,4Z)-5-(5-bromobenzofuran-2-yl)-5-chloropenta-2,4-dienoate], the melting point lay in the range of 109 to 113 °C.

Compound `COc1ccc(CCNC(=O)/C=C(\C)c2cc3cccc(OC(C)c4ccccc4)c3o2)cc1OC` (stereo not drawn) [Example 164, (E)-3-[7-(1-phenylethoxy)benzofuran-2-yl]-2-butenoic acid [2-(3,4-dimethoxyphenyl)ethyl]amide] had a melting point of 109 to 113 °C. `CCc1c(/C(C)=C/C(=O)NCCc2ccc(OC)c(OC)c2)oc2ccccc12` [Example 167, 3-(3-ethylbenzofuran-2-yl)-2-butenoic acid [2-(3,4-dimethoxyphenyl)ethyl]amide]: the melting point fell in the range of 131 to 135 °C. With `CCN(CC)C(=O)/C=C(\C)c1cc(Cl)cc2cc(C(C)=O)oc12` [Example 170, (E)-3-(2-acetyl-5-chloro-benzofuran-7-yl)-2-butenoic acid diethylamide] the figure was 116 to 117.5 °C; with `COc1ccc(NC(=O)/C=C(\C)c2cc3cccc(OC(C)c4ccccc4)c3o2)cc1` (stereo not drawn) [Example 172, (E)-3-[7-(1-phenylethoxy)benzofuran-2-yl]-2-butenoic acid (4-methoxyphenyl)amide], 120 to 125 °C; with `Cc1oncc1C(=O)Nc1c(C(=O)/C=C/c2ccccc2)oc2ccc(Br)cc12` [Example 173, (E)-5-methylisoxazole-4-carboxylic acid [5-bromo-2-(3-phenylacryloyl)benzofuran-3-yl]amide], 219.6 to 220.3 °C. With `C/C(O)=C(\C#N)C(=O)Nc1c(C(=O)/C=C/c2ccccc2)oc2ccc(Br)cc12` [Example 174, 2-cyano-3-hydroxy-(Z)-2-butenoic acid [5-bromo-2-((E)-3-phenylacryloyl)benzofuran-3-yl]amide] the figure was 261.5 to 262.8 °C. With `CC(=O)c1oc2ccc(Br)cc2c1NC(=O)/C=C/CCc1ccccc1` [Example 175, (E)-5-phenyl-2-penteneoic acid (2-acetyl-5-bromobenzofuran-3-yl)amide] the figure was 129 to 131 °C; with `CN(C)/C=C/C(=O)c1oc2ccc(Br)cc2c1NC(=O)/C=C/c1ccccc1` [Example 176, (E,E)-N-[5-bromo-2-(3-dimethylaminoacryloyl)-benzofuran-3-yl]-3-phenylacrylamide], 248 °C. Consider `C/C=C/C(=O)Nc1c(C(=O)/C=C/N(C)C)oc2ccc(Br)cc12` [Example 177, (E)-2-butenoic acid [5-bromo-2-(3-dimethylamino-(E)-acryloyl)benzofuran-3-yl]amide], for which the melting point was in the range of 247.5 to 249.5 °C.

`COc1ccc(/C=C/C(=O)Nc2c(C(C)=O)oc3ccc(Br)cc23)cc1` [Example 178, (E)-N-(2-acetyl-5-bromobenzofuran-3-yl)-3-(4-methoxyphenyl)acrylamide] had a melting point of 182.5 to 184.7 °C. With `COc1cccc2c(NC(=O)/C=C/c3ccccc3)c(C(=O)c3ccc(Br)cc3)oc12` [Example 179, (E)-N-[2-(4-bromobenzoyl)-7-methoxybenzofuran-3-yl]-3-phenylacrylamide] the figure was 236.5 to 237.8 °C.

`O=C(/C=C/c1ccccc1)Nc1c(Cl)oc2ccc(Br)cc12` [Example 180, (E)-N-(5-bromo-2-chlorobenzofuran-3-yl)-3-phenylacrylamide] gave a melting point of 248.7 to 250.3 °C.

In turn, `COc1cccc2c(NC(=O)/C=C/c3ccccc3)c(Cl)oc12` [Example 181, (E)-N-(2-chloro-7-methoxybenzofuran-3-yl)-3-phenylacrylamide] displayed a melting point of 220 to 221.3 °C. As to `COc1cccc2c(NC(=O)/C=C/c3ccccc3)c(C(C)=O)oc12` [Example 182, (E)-N-(2-acetyl-7-methoxybenzofuran-3-yl)-3-phenylacrylamide], the melting point lay in the range of 160.6 to 161.1 °C.
